This test relates to L1210 leukemia ip in BDF1 mice, survival T/C. Briefly: NCI In Vivo Anticancer Drug Screen. Data for tumor model L1210 Leukemia (intraperitoneal) in B6D2F1 (BDF1) mice. Conditions: endpoint: mean survival time, higher = longer survival. In a few lines: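 Antitumor effect is assessed in tumor-bearing animals. Survival in the compound arm is compared with a vehicle-dosed control arm and expressed as their quotient.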

[1] abbreviates: dose: 100.0 mg/kg/injection, schedule: Q01DX009 (ip), vehicle: Klucel (hydroxypropylcellulose) (HPC).
Where [2] appears, read: dose: 100.0 mg/kg/injection, schedule: Q04DX003 (ip), vehicle: Klucel (hydroxypropylcellulose) (HPC).
Where [3] appears, read: dose: 200.0 mg/kg/injection, schedule: Q01DX009 (ip), vehicle: Klucel (hydroxypropylcellulose) (HPC).
Where [4] appears, read: dose: 200.0 mg/kg/injection, schedule: Q04DX003 (ip), vehicle: Klucel (hydroxypropylcellulose) (HPC).
Setting [5] is: dose: 400.0 mg/kg/injection, schedule: Q01DX009 (ip), vehicle: Klucel (hydroxypropylcellulose) (HPC).
Where [6] appears, read: dose: 400.0 mg/kg/injection, schedule: Q04DX003 (ip), vehicle: Klucel (hydroxypropylcellulose) (HPC).
Where [7] appears, read: dose: 100.0 mg/kg/injection, schedule: Q04DX002 (ip), vehicle: Klucel (hydroxypropylcellulose) (HPC).
Where [8] appears, read: dose: 200.0 mg/kg/injection, schedule: Q04DX002 (ip), vehicle: Klucel (hydroxypropylcellulose) (HPC).
Setting [9] is: dose: 400.0 mg/kg/injection, schedule: Q04DX002 (ip), vehicle: Klucel (hydroxypropylcellulose) (HPC).
[10] abbreviates: dose: 50.0 mg/kg/injection, schedule: Q01DX009 (ip), vehicle: saline.
[11] abbreviates: dose: 100.0 mg/kg/injection, schedule: Q01DX001 (ip), vehicle: Klucel (hydroxypropylcellulose) (HPC).
Setting [12] is: dose: 200.0 mg/kg/injection, schedule: Q01DX001 (ip), vehicle: Klucel (hydroxypropylcellulose) (HPC).
The mark [13] stands for this setting: dose: 400.0 mg/kg/injection, schedule: Q01DX001 (ip), vehicle: Klucel (hydroxypropylcellulose) (HPC).
[14] abbreviates: dose: 100.0 mg/kg/injection, schedule: Q01DX001 (ip), vehicle: carboxymethylcellulose (CMC).
[15] abbreviates: dose: 400.0 mg/kg/injection, schedule: Q01DX001 (ip), vehicle: carboxymethylcellulose (CMC).

“And” between values parts separate entries of the source, which are not always exact repeats. Equal entries are not always repeated. Toxic doses and inconclusive results are not listed.

For the compound `CCCNC(C)(C)C(SSS)c1cccs1` (stereo unspecified), the T/C runs as follows: (dose: 100.0 mg/kg/injection, schedule: Q04DX003 (ip), vehicle: alcohol) 102 % of control; (dose: 200.0 mg/kg/injection, schedule: Q04DX003 (ip), vehicle: alcohol) 101 % of control.
As to `CC(=O)c1ccc(CCC(=O)O)cc1`, the T/C was 94 % of control (dose: 100.0 mg/kg/injection, schedule: Q04DX002 (ip), vehicle: saline with Tween-80); 98 % of control (dose: 200.0 mg/kg/injection, schedule: Q04DX002 (ip), vehicle: saline with Tween-80); 90 % of control (dose: 400.0 mg/kg/injection, schedule: Q04DX002 (ip), vehicle: saline with Tween-80).
For `NC(=O)C(NC(=O)c1ccc([N+](=O)[O-])cc1)SCc1ccccc1` (stereo unspecified), the T/C was 96 % of control (dose: 100.0 mg/kg/injection, schedule: Q04DX002 (ip), vehicle: gum acacia); 90 % of control (dose: 200.0 mg/kg/injection, schedule: Q04DX002 (ip), vehicle: gum acacia); 86 % of control (dose: 400.0 mg/kg/injection, schedule: Q04DX002 (ip), vehicle: gum acacia).
As to `C(/C=N/N(c1ccccc1)c1ccccc1)=N\N(c1ccccc1)c1ccccc1`, the T/C was 97 % of control under setting [1]; 101 % of control under setting [2]; 92 % of control under setting [3]; 106 % of control under setting [4]; 95 % of control under setting [5]; 93 % of control under setting [6].
For `CCOC(=O)C/C(C)=N\NC(N)=O`, the T/C is 104 % of control under setting [7], 101 % of control under setting [8] and 97 % of control under setting [9].
Turning to `Cc1cccc(N2CCN(CCO)CC2)c1`, the T/C under setting [10] was 106 % of control.
For the compound `N#CCCn1ccc2ccccc21`, the T/C is 96 % of control (dose: 100.0 mg/kg/injection, schedule: Q04DX003 (ip), vehicle: other); 104 % of control (dose: 200.0 mg/kg/injection, schedule: Q04DX003 (ip), vehicle: other); 106 % of control (dose: 400.0 mg/kg/injection, schedule: Q04DX003 (ip), vehicle: other).
For `O=[N+]([O-])c1ccc(C2=CSC3=NCCN23)cc1`, the T/C is 97 % of control (dose: 5.0 mg/kg/injection, schedule: Q01DX001 (ip), vehicle: saline); 95 % of control (dose: 10.0 mg/kg/injection, schedule: Q01DX001 (ip), vehicle: saline); 95 % of control (dose: 20.0 mg/kg/injection, schedule: Q01DX001 (ip), vehicle: saline); 110 % of control (dose: 25.0 mg/kg/injection, schedule: Q01DX009 (ip), vehicle: saline); 97 % of control (dose: 40.0 mg/kg/injection, schedule: Q01DX001 (ip), vehicle: saline); 95 % of control under setting [10].
Take `Cc1cc(C)c(NC(=O)C(Br)C(Br)c2ccccc2)c(C)c1` (stereo unspecified): the T/C is 98 % of control under setting [1], 98 % of control under setting [3] and 98 % of control under setting [5].
For the compound `Cc1cc(C)c(O)c(C)c1C`, the T/C was 104 % of control (dose: 100.0 mg/kg/injection, schedule: Q01DX009 (ip), vehicle: saline with Tween-80) and 95 % of control (dose: 400.0 mg/kg/injection, schedule: Q01DX009 (ip), vehicle: saline with Tween-80).
As to `O=C1c2ccccc2-c2nc3cc4ccccc4cc3nc21`, the T/C was 98 % of control under setting [11]; 98 % of control under setting [1]; 88 % of control under setting [12]; 97 % of control under setting [3]; 97 % of control under setting [13]; 102 % of control under setting [5].
For the compound `COc1cc(C(=O)Cl)cc(OC)c1OC(C)=O`, the T/C was 93 % of control (dose: 100.0 mg/kg/injection, schedule: Q01DX001 (ip), vehicle: saline); 89 % of control (dose: 200.0 mg/kg/injection, schedule: Q01DX001 (ip), vehicle: saline); 91 % of control (dose: 400.0 mg/kg/injection, schedule: Q01DX001 (ip), vehicle: saline).
With `C=CCOC(=O)OCc1ccccc1`, the T/C reads like this: (dose: 222.0 mg/kg/injection, schedule: Q01DX Z (ip), vehicle: methylcellulose (MC)) 92 % of control; (dose: 333.0 mg/kg/injection, schedule: Q01DX Z (ip), vehicle: methylcellulose (MC)) 89 % of control.
As for `CCc1ccccc1NC(=O)Sc1ccccc1C`, the T/C reads like this: under setting [1], 90 % of control; under setting [2], 110 % of control; under setting [3], 87 % of control; under setting [4], 102 % of control; under setting [6], 100 % of control.
`Cc1ccc(C(C)C)cc1NC(=S)Nc1ccccc1`: the T/C is 105 % of control under setting [7], 111 % of control under setting [8] and 97 % of control under setting [9].
As for `Cc1ccc(S(=O)(=O)OCCN(CCOS(=O)(=O)c2ccc(C)cc2)c2cccc(Cl)c2)cc1`, the T/C is 98 % of control (dose: 50.0 mg/kg/injection, schedule: Q01DX001 (ip), vehicle: carboxymethylcellulose (CMC)); 98 % of control under setting [14]; 109 % of control (dose: 200.0 mg/kg/injection, schedule: Q01DX001 (ip), vehicle: carboxymethylcellulose (CMC)); 114 % of control under setting [15].
On to `Cc1cc2oc(/C=N\Nc3nc4ccccc4s3)c(C)c2cc1C`, for which the T/C is 94 % of control under setting [1], 96 % of control under setting [3] and 108 % of control under setting [5].
`CCCCn1ccnc1C`: the T/C (dose: 6.25 mg/kg/injection, schedule: Q04DX003 (ip), vehicle: saline) is 113 % of control and 90 % of control; the T/C (dose: 12.5 mg/kg/injection, schedule: Q04DX003 (ip), vehicle: saline) was 93 % of control and 107 % of control; the T/C (dose: 25.0 mg/kg/injection, schedule: Q04DX003 (ip), vehicle: saline) was 113 % of control and 265 % of control and 89 % of control; the T/C (dose: 50.0 mg/kg/injection, schedule: Q04DX003 (ip), vehicle: saline) was 106 % of control and 289 % of control.
Regarding `O=[N+]([O-])c1cccc(N=Cc2ccccc2O)c1`, the T/C is, setting by setting: under setting [11], 93 % of control; under setting [12], 88 % of control; under setting [13], 88 % of control.
For `O=C1NC2(CCCCCC2)C(=O)N1CN1CCOCC1`, the T/C under setting [11] was 98 % of control, the T/C under setting [12] is 101 % of control and the T/C under setting [13] was 104 % of control.
On to `N#CC[CH2][Sn]([Br])([Br])[CH2]CC#N`, for which the T/C runs as follows: (dose: 12.5 mg/kg/injection, schedule: Q01DX009 (ip), vehicle: saline) 103 % of control; under setting [10], 96 % of control.
`NC(CCl)=NCCN1CCNC1=O`: the T/C by setting is: (dose: 100.0 mg/kg/injection, schedule: Q04DX002 (ip), vehicle: saline) 107 % of control; (dose: 200.0 mg/kg/injection, schedule: Q04DX002 (ip), vehicle: saline) 104 % of control; (dose: 400.0 mg/kg/injection, schedule: Q04DX002 (ip), vehicle: saline) 96 % of control.
Consider `CC1C=C2C(=O)C=C3OCOC34Oc3cc5c(cc3C(C1C)C24)OCO5` (stereo unspecified), for which the T/C was 94 % of control under setting [2], 97 % of control under setting [4] and 97 % of control under setting [6].
As to `Cc1cc(O)c(N=Nc2ccc(C(=O)O)cc2)cc1C`, the T/C is, setting by setting: (dose: 25.0 mg/kg/injection, schedule: Q04DX003 (ip), vehicle: carboxymethylcellulose (CMC)) 108 % of control; (dose: 50.0 mg/kg/injection, schedule: Q04DX003 (ip), vehicle: carboxymethylcellulose (CMC)) 103 % of control; (dose: 100.0 mg/kg/injection, schedule: Q01DX001 (ip), vehicle: other) 102 % of control; (dose: 100.0 mg/kg/injection, schedule: Q04DX003 (ip), vehicle: carboxymethylcellulose (CMC)) 101 % of control; (dose: 200.0 mg/kg/injection, schedule: Q01DX001 (ip), vehicle: other) 96 % of control; (dose: 200.0 mg/kg/injection, schedule: Q04DX003 (ip), vehicle: carboxymethylcellulose (CMC)) 101 % of control. Also, the T/C was 93 % of control (dose: 400.0 mg/kg/injection, schedule: Q01DX001 (ip), vehicle: other) and 95 % of control (dose: 400.0 mg/kg/injection, schedule: Q04DX003 (ip), vehicle: carboxymethylcellulose (CMC)).
Consider `Oc1ccc(Cl)cc1C=Nc1cnc2ccccc2c1`, for which the T/C is, setting by setting: under setting [14], 88 % of control; under setting [15], 101 % of control.
